Experimental data taken from patent US11014942B2, “Preparation of a solid form of gadobenate dimeglumine” (BRACCO IMAGING S.P.A., priority 2014, dated 2021).

Experiments:
[1] = cited from earlier work; for Log P of antisolvent B: Table 1, CRC Handbook, values labelled * from U.S. National Library of Medicine; for log P (octanol/water partition coefficient): values listed in the description, CRC Handbook or US National Library of Medicine tables
[2] = solubility in solvent A (upper concentration limit); assay type: physicochemical
Description: Higher concentrations (of the gadobenate compound in the solvent A), for instance of at least 10% or, preferably, equal to or higher than 20%, are, however, preferred for the use of the invention, conveniently reducing organic solvent waste.

[3] = storage stability of the collected solid; assay type: physicochemical; conditions: when properly stored, under inert atmosphere
Description: Moreover, after its isolation, the collected solid product can conveniently be stored for long periods of time, for instance up to 2 years when properly stored, (i.e. under inert atmosphere) in a form that is ready for use in the preparation of the MultiHance® formulation, by simple dissolution of the solid compound in the proper amount of a pharmaceutically acceptable aqueous solution, such as, for instance, the sterile water for injections (WFI) or any another proper aqueous medium, according to procedures commonly employed in the art.

[4] = water dissolution of the solid form; assay type: physicochemical
Description: As formerly discussed, the complex compound collected with the proposed process is endowed with a good stability, favorable workability and, especially, optimal water solubility.

SMILES | Log P of antisolvent B [1] | log P (octanol/water partition coefficient) [1] | other results
COCC(C)O (stereo not drawn) [1-methoxy-2-propanol] | −0.44 | −0.437 | –
CCC(C)=O [2-butanone] | – | 0.29 | –
O=C1CCCCC1 [cyclohexanone] | – | 0.81 | –
COCCOCCOC [diethylene glycol dimethyl ether] | −0.36* | −0.36 | –
O=C([O-])CN(CCN(CC(=O)[O-])CC(=O)[O-])CCN(CC(=O)O)C(COCc1ccccc1)C(=O)O.[Gd+3] (stereo not drawn) [gadobenate dimeglumine, gadolinium complex of the 4-carboxy-5,8,11-tris(carboxymethyl)-1-phenyl-2-oxa-5,8,11-triazatridecan-13-oic acid] | – | – | upper concentration limit consistent with solubility in methanol ([2]; solvent A methanol): about 50%; upper concentration limit based on solubility in water or aqueous solvent ([2]; solvent A water or aqueous solvent such as saline solution): about 70%; storage time of the collected solid product [3]: up to 2 years; water required for complete dissolution ([4]; at 25-30° C.): less than 1 mL of water for 1 g of product; time to complete ready dissolution in water ([4]; less than 1 mL of water for 1 g of product at 25-30° C.): less than five minutes
CC(=O)CC(C)C [methyl isobutyl ketone] | 0.56 | 0.56 | –
C1CCOC1 [tetrahydrofurane] | 0.46 | 0.46 | –
